Structures can show the parent of a compound that is named as a salt. Where two headings read alike, the source gives them in different places.

This note sets out measurements from paper PMC10004487, “Flavonoids from the Roots of Sophora flavescens and Their Potential Anti-Inflammatory and Antiproliferative Activities” (Molecules, 2023).

Data set [1] has as its system HepG2 cells. Description: Antiproliferative MTT assay on HepG2 cell lines. The data set is classed as cell-based, Human. Particulars: read-out: IC50 (50% inhibitory concentration), antiproliferative effect, 24 and 48 h of incubation, mean ± SD of 3 tests. As to the method: Inhibitory rate (%) = [(O.DDrug − O.DBlank)/(O.DControl − O.DBlank)] ×100%. The IC50 values were calculated with probit analysis using software SPSS version 21.0.
(§1) Murine macrophages (RAW 264.7) were cultured in Dulbecco’s modified Eagle’s medium (DMEM) supplemented with the addition of 10% fetal bovine serum (FBS) and 1% streptomycin (10,000 μg/mL)-penicillin (10,000 U/mL) at 37 °C in a humidified incubator under 5% CO2. HepG2 cells were cultured at 37 °C under 5% CO2. The optimal fermentation culture medium comprised DMEM, 1% mixed penicillin (10,000 U mL^−1), 1% HEPES (BioFroxx, Hesse, Einhausen), and 10% fetal bovine serum (FBS), as well as streptomycin (SM) (10,000 μg/mL^−1) fluid. In all experiments, cells were left to acclimate for 24 h before any treatments.
Briefly, the cells were incubated in 96-well microplates (1 × 10^5 per well) and allowed to adhere for 24 h before drug administration. Then, the cell lines were treated with test compounds 1–36 at five concentrations (3.12, 6.25, 12.5, 25, and 50 μM). At 24 and 48 h of incubation, cells were treated with MTT (200 µL, 5.0 mg/mL) and dissolved in the culture medium, for 1 h under at 37 °C under a 5% CO2 humidified atmosphere. The MTT was then removed carefully and resolved with DMSO (150 μL/well). Optical density was recorded using a Thermo Fisher Scientific microplate reader at 490 nm. Cisplatin (CP) and medium were used as positive and negative controls, respectively.

Data set [2] is described as follows: Cytotoxicity on RAW 264.7 macrophages (MTT cell viability). The data set is classed as cell-based, Murine. Particulars: mouse. As to the method: The potential cytotoxicity of compounds on RAW 264.7 macrophages cells was determined before executing further studies. Macrophage cells were treated with compounds, and a mitochondria colorimetric (MTT) assay was used to test cell survival.
as §1
To measure cell viability, an MTT assay was performed. […] After washing twice with a PBS buffer, 20 μL of the MTT solution was added to each well, and incubation continued for 4 h. Optical density (O.D) was measured at 490 nm by a microplate reader (Thermo Fisher Scientific, Waltham, MA, USA). The relative cell viability was calculated in contrast to the normal control group.

Data set [3] relates to LPS-induced NO production in RAW 264.7 macrophages. Description: Inhibition of LPS-induced NO production in macrophages (Griess reagent). Type of data set: cell-based, Murine. To be noted: Mus musculus, RAW264.7, read-out: IC50 (50% inhibitory concentration), NO production inhibition. As to the method:
NO is one of the immune effectors used by macrophages to defend our bodies against intracellular pathogens. […] NO production inhibition (%) = [(O.DLPS − O.DDrug)/(O.DLPS − O.DBlank)] × 100%. The determination of IC50 was calculated using probit analysis in SPSS version 21.0.
as §1
Activated macrophage cells could express inducible nitric oxide synthase (iNOS), catalyzing the production of NO from L-arginine. […] Afterward, costimulation for 24 h at 37 °C was carried out in an incubator under 5% CO2. Then, Griess reagents I and II (100 μL) were mixed with cell culture medium (70 μL). Prior to measuring the optical density, plates were incubated at room temperature for 10 min, and the absorbance at 540 nm was measured using a Thermo Fisher Scientific microplate reader. N(G)-monomethyl-L-arginine, monoacetate salt (L-NMMA), and the medium were used as positive and negative controls, respectively.

Where [4] appears, read: RAW 264.7 pretreated with compound 1 h, then LPS 1 μg/mL for 24 h, Griess, mean ± SD of 3 tests.

Consider `N.N.[Cl][Pt][Cl]` [Cisplatin, reference compound], for which the IC50 in data set [1] was found to be 24.5 ± 0.8 µM.

In the case of `CC(C)=CCc1c(O)cc(O)c2c1O[C@H](c1ccc(O)cc1)CC2=O` [Compound 1, sophorafiavanone B], the IC50 in data set [1] (Homo sapiens) was determined as 34.9 ± 0.3 µM.

Consider `COc1cc(O)c(CC=C(C)C)c2c1C(=O)CC(c1ccc(O)cc1)O2` (stereo not shown) [Compound 2, isoxanthohumol], for which the CC50 in data set [2] was > 50 µM. Further, the IC50 in data set [3] (setting [4]) turned out to be 8.4 ± 0.7 µM.

`CC(C)=CCc1c(O)cc(O)c2c1O[C@H](c1ccc(O)cc1O)CC2=O` [Compound 5, leachianone G]: the IC50 in data set [1] (Homo sapiens) was 37.6 ± 0.7 µM.

On to `C=C(C)[C@H](CC=C(C)C)Cc1c(O)cc(OC)c2c1O[C@H](c1ccc(O)cc1O)CC2=O` [Compound 13, kurarinone], for which the midpoint of cytotoxicity in data set [2], the CC50, lay at 33.8 ± 1 µM. The IC50 in data set [3] (setting [4]) came to 14.4 ± 0.4 µM.

Turning to `CC(C)=CCc1c(O)c(CC=C(C)C)c2c(c1O)C(=O)C[C@@H](c1ccc(O)cc1O)O2` [Compound 15, kushenol E], the CC50 in data set [2] was found to be 18.8 ± 0.3 µM. Moreover, the IC50 in data set [3] (setting [4]) turned out to be 9.3 ± 0.7 µM.

Turning to `C=C(C)C(CC=C(C)C)Cc1c(O)c(CC=C(C)C)c(O)c2c1O[C@H](c1ccc(O)cc1O)CC2=O` (stereo partly shown) [Compound 16, kushenol B], the IC50 in data set [1] (Homo sapiens) amounted to 30.8 ± 1.1 µM.

For the molecule `CC(C)=CCc1c(O)cc(O)c2c(=O)c(O)c(-c3ccc(O)cc3)oc12` [Compound 19, noranhyoicaritin], the CC50 in data set [2] is > 50 µM. In addition, the IC50 is 12.4 ± 0.9 µM in data set [3] (setting [4]) and 41.4 ± 0.6 µM in data set [1] (Homo sapiens).

Consider `COc1ccc(-c2oc3c(CC=C(C)C)c(O)cc(O)c3c(=O)c2O)cc1O` [Compound 21, 8-(3,3-dimethylallyl)-tamarixetin], for which, in data set [1] (Homo sapiens), the IC50 came to 26.4 ± 0.3 µM.

In data set [2], `C=C(C)C(CC=C(C)C)Cc1c(O)cc(O)c2c(=O)c(O)c(-c3ccc(O)cc3)oc12` (stereo not shown) [Compound 22, 8-lavandulylkaempferol] returned a CC50 of 13.8 ± 0.6 µM. Moreover, the IC50 in data set [3] (setting [4]) was determined as 5.7 ± 0.4 µM; in data set [1] (Homo sapiens), 0.46 ± 0.1 µM.

Consider `C=C(C)[C@H](CC=C(C)C)Cc1c(O)cc(OC)c2c1O[C@H](c1ccc(O)cc1O)[C@@H](O)C2=O` [Compound 29, kushenol I], for which the midpoint of cytotoxicity in data set [2], the CC50, lay at 20.6 ± 1.1 µM. Further, the IC50 in data set [3] (setting [4]) is 7.2 ± 0.6 µM.

For the molecule `[H]/N=C(/NC)NCCC[C@H](N)C(=O)O` [L-NMMA, N(G)-monomethyl-L-arginine, monoacetate salt, reference compound], the CC50 in data set [2] (RAW 264.7 macrophages, MTT, compound 1 h then LPS 1 μg/mL 24 h, mean ± SD of 3 tests) is > 50 µM. The IC50 in data set [3] amounted to 21.8 ± 0.9 µM.

xanthogalenol [Compound 34]: the IC50 in data set [1] stood at 48.6 ± 0.8 µM.

The term CC50 denotes the concentration at which the toxic effect on the cells reaches its halfway point. High values mean lower toxicity to the cells, low ones greater toxicity to the cells.
